Data taken from US5830855A, “Lipodepsipeptides as antifungal and fungicidal agents” (priority 1996, dated 1998).
In brackets after ≈: the same amount, converted by molar mass.

Assays:
[1] = tested on: clinical isolates (fungi); assay: Broth microdilution MIC, fungal isolates overall; format: cell-based; conditions: range over all clinical isolates
Text: Most of the fungal strains used in the tests were clinical isolates obtained from the University of Texas Health Science Center at San Antonio Fungus Testing Laboratory (San Antonio, Tex.) and the remaining isolates were ATCC strains.
(§1) Medium: Liquid RPMI 1640 (RPMI) medium with L-glutamine and without sodium bicarbonate (Sigma Chemical Co., R-6504; St. Louis, Mo.) buffered with 0.165M MOPS (34.54 g/liter) was used for in vitro antifungal tests. The medium was adjusted to pH 7.0 with 10M NaOH and filter sterilized.
Lipodepsipeptide Dilutions: All stock drug solution concentrations were at least 10-fold higher than the highest concentration tested. […]
(§2) Preparation of Inoculum Suspensions: On Sabouraud dextose agar (SDA; BBL, Becton and Dickinson and Co., Cockeysville, Md.) all isolates were subcultured at least twice before use to ensure purity and viability. […] The turbidity of each mixed suspension was measured at 530 nm and adjusted to 1×10^6 to 5×10^6 CFU/ml by the NCCLS spectrophotometric method described by National Committee for Clinical Laboratory Standards. […]
(§3) Aspergillus fumigatus and Mucor spp. were grown for 1 wk at 35° C. […] The stock suspensions of all filamentous fungi were measured at 530 nm and adjusted to 85-87% transmission. The concentration (1×10^6 to 5×10^6 CFU/ml) was determined by hemacytometer count or plate count on SDA. […]

fungal isolates = assay: Fungicidal activity (MFC), fungal isolates overall; format: cell-based, fungi; conditions: Table 2 organisms
Description: as §1
(§4) Lipodepsipeptide Dilutions: All stock drug solution concentrations were at least 10-fold higher than the highest concentration tested. AmB, ketoconazole, and the test compounds (SR-E, ST-B, and SS-A) were dissolved in sterile distilled water, 0.2N HCl, and 0.001N HCl, respectively. Each stock solution was diluted to 2× the highest concentration of drug tested with RPMI. Two-fold dilutions were made with RPMI medium.
as §2, §3

Saccharomyces cerevisiae [2] = assay: Minimum Fungicidal Concentration (MFC); format: cell-based; conditions: Table 2, 1 strain tested more than once, 24 hr
Description: as §1, §4
(§5) Preparation of Inoculum Suspensions: On Sabouraud dextose agar (SDA; BBL, Becton and Dickinson and Co., Cockeysville, Md.) all isolates were subcultured at least twice before use to ensure purity and viability. Candida spp. and Saccharomyces cerevisiae were grown for 24 hr at 35° C. Isolates of Cryptococcus neoformans were grown for 48 hr at 35° C. Yeast cells from at least five 1-mm-diameter colonies were suspended in 5 ml of sterile 0.85% saline. The resulting suspension was vortexed for 15 sec. The turbidity of each mixed suspension was measured at 530 nm and adjusted to 1×10^6 to 5×10^6 CFU/ml by the NCCLS spectrophotometric method described by National Committee for Clinical Laboratory Standards. 1992. Reference method for broth dilution antifungal susceptibility testing of yeasts; proposed standard, NCCLS document M27-P (ISBN 1-56238-186-5). NCCLS, Villanova. The final transmission of each yeast suspension ranged from 85-87%.
(§6) Aspergillus fumigatus and Mucor spp. were grown for 1 wk at 35° C. The dermatophytes, Microsporum spp. and Trichophyton spp., were grown for two wk at 30° C. Fungal spores were washed from the plates of all good spore formers (A. fumigatus, Mucor spp., Microsporum canis and Trichophyton spp.) by placing 5 ml of 0.85% saline with 0.2% Tween 80 on the plates and mixing with an inoculating loop. The spore/mycelium suspension was drawn off with a pipette and allowed to settle for at least 5 min. For the poor spore-forming Microsporum audouinii, the procedure was the same except the spore/mycelial suspension was homogenized with a ground glass tissue homogenizer and then allowed to settle for at least 5 min. A small amount of the supernatant was transferred to 5 ml of sterile saline and vortexed. The stock suspensions of all filamentous fungi were measured at 530 nm and adjusted to 85-87% transmission. The concentration (1×10^6 to 5×10^6 CFU/ml) was determined by hemacytometer count or plate count on SDA. All stock suspensions were diluted 1000-fold with RPMI, or 2× the final desired test inocula. The 2× inoculum was diluted 1:1 when the wells were inoculated, and the desired inoculum size was achieved.
(§7) Broth Microdilution Test: Broth microdilution tests were performed using sterile, disposable, multiwell microdilution plates (96 round U-bottom wells) (Falcon 3077; Becton and Dickinson Labware, Lincoln Park, N.J.). The drugs (2× concentrations) were dispensed into the wells of rows number 1 to 10 of the microdilution plates in 100 μl volumes from highest drug concentration to lowest drug concentration. Each well was inoculated with 100 μl of the corresponding 2× concentrated fungal suspension. The wells of row 11 contained the inoculum with drug-free media as a positive growth control and the wells of row 12 contained uninoculated-drug-free medium as a sterility control.
(§8) Incubation and Scoring of MIC: All cultures were incubated without shaking at the temperature used during subculture. Incubation times were 48 hr for Candida spp., S. cerevisiae, A. fumigatus, and Mucor spp; 72 hr for C. neoformans; and 7 days for Microsporum and Trichophyton spp. […]

Mucor spp. [3] = assay: Minimum Fungicidal Concentration (MFC); format: cell-based; conditions: Table 2, 5 isolates, 24 hr
Description: as §1, §4, §5, §6, §7, §8

Candida rugosa [4] = assay: Minimum Fungicidal Concentration (MFC); format: cell-based; conditions: Table 2, 2 isolates, 24 hr
Description: as §1, §4, §5, §6, §7, §8

Microsporum spp. [5] = assay: Minimum Fungicidal Concentration (MFC); format: cell-based; conditions: Table 2, 2 isolates, 7 d
Description: as §1, §4, §5, §6, §7, §8

Aspergillus fumigatus [6] = assay: Minimum Fungicidal Concentration (MFC); format: cell-based; conditions: Table 2, 16 isolates, 48 hr
Description: as §1, §4, §5, §6, §7, §8

Candida lusitaniae [7] = assay: Minimum Fungicidal Concentration (MFC); format: cell-based; conditions: Table 2, 2 isolates, 24 hr
Description: as §1, §4, §5, §6, §7, §8

Candida kefyr [8] = assay: Minimum Fungicidal Concentration (MFC); format: cell-based; conditions: Table 2, 1 isolate, 24 hr
Description: as §1, §4, §5, §6, §7, §8

Candida krusei [9] = assay: Minimum Fungicidal Concentration (MFC); format: cell-based; conditions: Table 2, 2 isolates, 24 hr
Description: as §1, §4, §5, §6, §7, §8

Cryptococcus neoformans [10] = assay: Minimum Fungicidal Concentration (MFC); format: cell-based; conditions: Table 2, 14 isolates, 48 hr
Description: as §1, §4, §5, §6, §7, §8

Trichophyton spp. [11] = assay: Minimum Fungicidal Concentration (MFC); format: cell-based; conditions: Table 2, 3 isolates, 7 d
Description: as §1, §4, §5, §6, §7, §8

Candida tropicalis [12] = assay: Minimum Fungicidal Concentration (MFC); format: cell-based; conditions: Table 2, 2 isolates, 24 hr
Description: as §1, §4, §5, §6, §7, §8

Candida parapsilosis [13] = assay: Minimum Fungicidal Concentration (MFC); format: cell-based; conditions: Table 2, 2 isolates, 24 hr
Description: as §1, §4, §5, §6, §7, §8

Saccharomyces cerevisiae [14] = assay: Broth microdilution MIC; format: cell-based; conditions: Table 1 (MICs), 1 strain tested more than once (control ATCC 36375), 48 hr
Description: as §1, §4, §5, §6, §7, §8

Mucor spp. [15] = assay: Broth microdilution MIC; format: cell-based; conditions: Table 1 (MICs), 5 isolates, 48 hr
Description: as §1, §4, §5, §6, §7, §8

Candida albicans = assay: Broth microdilution MIC; format: cell-based; conditions: Table 1 (MICs); Candida albicans, 20 isolates; RPMI pH 7.0, 48 hr; Ktz read at score 2, others at score 0
Description: as §1, §4, §5, §6, §7, §8

Candida rugosa [16] = assay: Broth microdilution MIC; format: cell-based
Description: as §1, §4, §5, §6, §7, §8

Microsporum spp. [17] = assay: Broth microdilution MIC; format: cell-based; conditions: Table 1 (MICs), 2 isolates, 7 days
Description: as §1, §4, §5, §6, §7, §8

Aspergillus fumigatus [18] = assay: Broth microdilution MIC; format: cell-based; conditions: Table 1 (MICs), 16 isolates, 48 hr
Description: as §1, §4, §5, §6, §7, §8

Candida lusitaniae [19] = assay: Broth microdilution MIC; format: cell-based; conditions: Table 1 (MICs), 2 isolates, 48 hr
Description: as §1, §4, §5, §6, §7, §8

Candida kefyr [20] = assay: Broth microdilution MIC; format: cell-based; conditions: Table 1 (MICs), 1 isolate, 48 hr
Description: as §1, §4, §5, §6, §7, §8

Candida krusei [21] = assay: Broth microdilution MIC; format: cell-based; conditions: Table 1 (MICs), 2 isolates, 48 hr
Description: as §1, §4, §5, §6, §7, §8

Cryptococcus neoformans [22] = assay: Broth microdilution MIC; format: cell-based
Description: as §1, §4, §5, §6, §7, §8

Trichophyton spp. [23] = assay: Broth microdilution MIC; format: cell-based; conditions: Table 1 (MICs), 3 isolates, 7 days
Description: as §1, §4, §5, §6, §7, §8

Candida tropicalis [24] = assay: Broth microdilution MIC; format: cell-based
Description: as §1, §4, §5, §6, §7, §8

Candida parapsilosis [25] = assay: Broth microdilution MIC; format: cell-based; conditions: Table 1 (MICs), 2 isolates, 48 hr
Description: as §1, §4, §5, §6, §7, §8

`C[C@@H]1[C@H](O)[C@@H](C)/C=C/C=C/C=C/C=C/C=C/C=C/C=C/[C@H](O[C@@H]2O[C@H](C)[C@@H](O)[C@H](N)[C@@H]2O)C[C@@H]2O[C@](O)(C[C@@H](O)C[C@@H](O)[C@H](O)CC[C@@H](O)C[C@@H](O)CC(=O)O[C@H]1C)C[C@H](O)[C@H]2C(=O)O` [AmB, amphotericin B, reference compound] was tested, and the “susceptibility (MIC) of the clinical isolates” value [1] was 0.02-1.25 g/ml, the “fungicidal activity” value (fungal isolates) was “fungicidal activity against most of the strains tested” and the “MFC (μg/ml) range” value (Saccharomyces cerevisiae [2]) was 1.25 µg/mL (≈ 1.35 µM). The “MFC (μg/ml) range” value (Mucor spp. [3]) was no more than 0.02 to 0.3 µg/mL, the “MFC (μg/ml) range” value (Candida rugosa [4]) was 0.6 to 2.5 µg/mL and the “MFC (μg/ml) range” value (Microsporum spp. [5]) was 0.08 to 0.3 µg/mL. For the same compound, the “MFC (μg/ml) range” value (Aspergillus fumigatus [6]) was 0.6 to 2.5 µg/mL, the “MFC (μg/ml) range” value (Candida lusitaniae [7]) was 0.6 µg/mL (≈ 0.649 µM) and the “MFC (μg/ml) range” value (Candida kefyr [8]) was 0.3 µg/mL (≈ 0.325 µM). The “MFC (μg/ml) range” value (Candida krusei [9]) was 0.6 µg/mL (≈ 0.649 µM), the “MFC (μg/ml) range” value (Cryptococcus neoformans [10]) was 0.15 to 1.25 µg/mL and the “MFC (μg/ml) range” value (Trichophyton spp. [11]) was 0.3 to 0.6 µg/mL. The “MFC (μg/ml) range” value (Candida tropicalis [12]) was 0.6 to 1.25 µg/mL, the “MFC (μg/ml) range” value (Candida parapsilosis [13]) was 1.25 µg/mL (≈ 1.35 µM) and the “MFC (μg/ml) range” value (Saccharomyces cerevisiae [14]) was 0.3 µg/mL (≈ 0.325 µM). It also gave an MIC range (Mucor spp. [15]) of 0.02 to 0.15 µg/mL, an MIC range (Candida albicans) of 0.04 to 0.3 µg/mL and an MIC range (Candida rugosa [16]; Table 1 (MICs), Candida rugosa, 2 isolates, 48 hr) of 0.3 to 1.25 µg/mL. The “susceptibility of one strain of C. rugosa” value (Candida rugosa [16]; one strain of C. rugosa (AmB-resistant)) was “resistance”, the MIC range (Microsporum spp. [17]) was 0.04 to 0.3 µg/mL and the MIC range (Aspergillus fumigatus [18]) was 0.15 to 1.25 µg/mL. For the same compound, the MIC range (Candida lusitaniae [19]) was 0.3 µg/mL (≈ 0.325 µM), the “MIC (μg/ml) range” value (Candida kefyr [20]) was 0.3 µg/mL (≈ 0.325 µM) and the “MIC (μg/ml) range” value (Candida krusei [21]) was 0.3 to 0.6 µg/mL. For the same compound, the MIC range (Cryptococcus neoformans [22]; Table 1 (MICs), Cryptococcus neoformans, 14 isolates, 72 hr) was 0.08 to 1.25 µg/mL, the MIC, one strain of C. neoformans (Cryptococcus neoformans [22]; one strain of C. neoformans, very sensitive to ST-B, somewhat resistant to AmB) was 1.25 µg/mL and the MIC range (Trichophyton spp. [23]) was 0.3 to 0.6 µg/mL. For the same compound, the “MIC (μg/ml) range” value (Candida tropicalis [24]; Table 1 (MICs), Candida tropicalis, 2 isolates, 48 hr) was 0.3 to 1.25 µg/mL, the “susceptibility of one strain of C. tropicalis” value (Candida tropicalis [24]; one strain of C. tropicalis) was “resistance” and the MIC range (Candida parapsilosis [25]) was 0.6 µg/mL (≈ 0.649 µM).
